Experimental data from paper PMC10017709, “Structural basis of selective cannabinoid CB2 receptor activation” (Nature Communications, 2023).

Legend:
[1] = test system: chronic abdominal pain associated with Crohn’s disease; conditions: 14 patients with chronic abdominal pain associated with Crohn’s disease; cited from earlier work
CB2R-L185^ECL2H = CB2R-L185^ECL2H (Homo sapiens, UniProt P34972, L185H); assay: [3H]CP55,940 displacement assay, CB2R L185H mutant; type: binding; conditions: read-out: pKi (converted)
CB2R-L185^ECL2H, sequence (P34972 whole entry L185H): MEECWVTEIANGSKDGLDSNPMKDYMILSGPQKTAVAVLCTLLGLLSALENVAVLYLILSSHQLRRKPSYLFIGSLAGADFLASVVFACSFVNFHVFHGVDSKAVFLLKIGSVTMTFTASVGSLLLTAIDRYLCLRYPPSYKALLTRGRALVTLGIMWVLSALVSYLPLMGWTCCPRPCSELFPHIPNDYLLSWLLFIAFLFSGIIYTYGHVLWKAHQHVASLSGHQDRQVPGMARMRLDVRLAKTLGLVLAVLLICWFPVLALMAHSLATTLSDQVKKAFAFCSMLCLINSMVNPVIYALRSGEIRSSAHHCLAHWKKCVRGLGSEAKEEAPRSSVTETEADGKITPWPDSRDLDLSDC

CB1R activity = assay: Mouse tetrad assay for CB1R activity; conditions: in vivo, po, 25 mg/kg
Method: To determine whether LEI-102 maintained its selectivity for CB2R over CB1R in vivo, LEI-102 was tested in the mouse tetrad assay for CB1R activity. In this assay, four consecutive behavioral tests, related to anti-nociception, hypothermia, catalepsy, and spontaneous activity, were performed 120 min after administration of the agonist. […] There were no effects on nociceptive behavior assessed in tail withdrawal test nor on body temperature (Fig. 6 upper row). No effect was found on locomotor behavior (Fig. 6 lower row) in case of distance traveled, time spent mobile, or running speed of mice.
The well-established model of cisplatin-induced nephropathy was used[63]. Mice (CB2R^−/− and CB2R^+/+) were sacrificed 72 h after a single injection of cisplatin (cis-diamine platinum (II) dichloride (Sigma#P4394) 25 mg/kg i.p.; freshly dissolved in physiological saline) by cervical dislocation under deep anesthesia with 5% isoflurane, for collection of blood and tissue samples. LEI-102 was given i.p. or by oral gavage (p.o.) at 0.3, 3.0, and 10 mg/kg every day, starting 1.5 h before the cisplatin exposure. The drug was dissolved in a vehicle of DMSO:Tween 80:saline, 1:1:18. After administration of LEI‐102, mice were killed by cervical dislocation under deep anesthesia with 5% isoflurane, for collection of blood and tissue samples at the time described in the figure. The tetrad assay in mice has previously been described in detail.

For `CC(C)(C)[C@@H](CO)NC(=O)c1nn(-c2c[n+]([O-])ccn2)c2c1C[C@@H]1C[C@H]21` [APD371], which abdominal pain scores [1] is on record?
Its abdominal pain scores is “improvement”.

And the adverse events [1]?
Its adverse events is “mild-to-moderate adverse events”.

With `CC(C)CN1C(=O)CN(Cc2ccc(-c3ccc(F)c(CNC4CCOCC4)n3)cc2)C1=O` [LEI-102, 1-(4-(5-fluoro-6-(((tetrahydro-2H-pyran-4-yl)amino)methyl)pyridin-2-yl)benzyl)-3-isobutylimidazolidine-2,4-dione] as the compound, how does the Ki (CB2R-L185^ECL2H) read?
The Ki was 0.0501 µM.

What about the catalepsy (CB1R activity) of the same compound?
Its catalepsy is “Nor was catalepsy observed”.

What about the “effects in the tetrad assay as compared with vehicle” value (CB1R activity) of the same compound?
Its value is “did not produce any effects”.

And the “Tail withdrawal (%MPE)” value (CB1R activity; 120 min)?
Its value is 30.0 %MPE.
